In patent EP0695544B1, “Hard gelatin capsules resistant to denaturation and the production thereof” (SHIONOGI & CO., LTD., priority 1994, dated 1996):
Entries after “also recorded” stand apart in the source; their conditions may differ. Read-outs that look alike come from different tables or passages of the source.

Assays:
[1] = Solubility of gelatin capsule shells filled with PEG 4000 and free radical scavenger after storage (Example 3); format: physicochemical; details: 5 parts scavenger + 95 parts PEG 4000 packed into capsule, 60°C for a week, content removed; 2nd solution of JP12 (37 °C)
Protocol: After storage in a tightly closed glass bottle at 60°C for a week, the capsule content was removed and solubility of each capsule shell was examined in the same manner as in Example 1.

[2] = capsule shells stored without contact over 95 parts PEG 6000 + 5 parts scavenger, 60°C for a week, 2nd solution of JP12 (37 °C), observed after 5 to 6 minutes

Compound	Solubility [1]	Solubility [2]	Solubility ([2]; listed as tocopherol)
Cc1c(C)c2c(c(C)c1O)CC[C@@](C)(CCC[C@H](C)CCC[C@H](C)CCCC(C)C)O2 [d-α -tocopherol]	soluble rapidly	soluble rapidly	completely prevented the decrease of the solubility
polyphosphoric acid	soluble rapidly	–	–
N[C@@H](CCC(=O)N[C@@H](CS)C(=O)NCC(=O)O)C(=O)O [glutathione]	soluble rapidly	–	–
Cc1cc2nc3c(=O)[nH]c(=O)nc-3n(C[C@H](O)[C@H](O)[C@H](O)CO)c2cc1C [riboflavin]	–	completely prevented the decrease of the solubility; also recorded: soluble rapidly	–
O=P(=O)O [metaphosphoric acid]	soluble rapidly	–	–
